What all share (assay): biochemical
Design in all cases: DiscoveRx KINOMEscan active site-directed competition binding; percent of control kinase bound to immobilised ligand

Assay [1] addresses T1, DCAMKL1 (Homo sapiens, UniProt O15075).
T1 construct: gene DCLK1
T1 sequence (O15075 1-740): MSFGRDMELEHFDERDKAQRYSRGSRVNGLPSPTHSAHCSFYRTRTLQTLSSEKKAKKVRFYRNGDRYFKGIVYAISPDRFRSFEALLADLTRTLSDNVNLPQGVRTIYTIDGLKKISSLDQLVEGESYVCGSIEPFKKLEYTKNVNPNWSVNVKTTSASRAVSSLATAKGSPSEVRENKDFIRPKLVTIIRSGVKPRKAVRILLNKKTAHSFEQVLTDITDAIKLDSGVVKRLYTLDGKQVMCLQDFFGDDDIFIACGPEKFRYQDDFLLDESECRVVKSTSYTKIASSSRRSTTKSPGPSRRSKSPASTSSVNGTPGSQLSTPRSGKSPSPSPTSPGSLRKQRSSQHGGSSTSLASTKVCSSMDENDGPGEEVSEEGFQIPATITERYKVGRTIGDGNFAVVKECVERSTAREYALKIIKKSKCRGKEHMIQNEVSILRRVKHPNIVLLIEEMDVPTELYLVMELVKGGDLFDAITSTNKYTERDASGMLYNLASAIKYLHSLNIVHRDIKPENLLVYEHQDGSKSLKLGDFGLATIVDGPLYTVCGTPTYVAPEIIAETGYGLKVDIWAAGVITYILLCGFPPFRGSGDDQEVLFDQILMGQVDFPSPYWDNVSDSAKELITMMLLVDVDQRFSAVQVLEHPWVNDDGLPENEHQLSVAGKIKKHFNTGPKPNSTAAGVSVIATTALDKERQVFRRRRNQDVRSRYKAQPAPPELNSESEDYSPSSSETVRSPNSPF

In assay [2] the target is DDR1 (Homo sapiens, UniProt Q08345).
In assay [3] the target is FYN (Homo sapiens, UniProt P06241).
Assay [4] concerns the target T2, RIPK5 (Homo sapiens, UniProt Q6XUX3).
T2 construct: gene DSTYK
T2 sequence (Q6XUX3 1-929): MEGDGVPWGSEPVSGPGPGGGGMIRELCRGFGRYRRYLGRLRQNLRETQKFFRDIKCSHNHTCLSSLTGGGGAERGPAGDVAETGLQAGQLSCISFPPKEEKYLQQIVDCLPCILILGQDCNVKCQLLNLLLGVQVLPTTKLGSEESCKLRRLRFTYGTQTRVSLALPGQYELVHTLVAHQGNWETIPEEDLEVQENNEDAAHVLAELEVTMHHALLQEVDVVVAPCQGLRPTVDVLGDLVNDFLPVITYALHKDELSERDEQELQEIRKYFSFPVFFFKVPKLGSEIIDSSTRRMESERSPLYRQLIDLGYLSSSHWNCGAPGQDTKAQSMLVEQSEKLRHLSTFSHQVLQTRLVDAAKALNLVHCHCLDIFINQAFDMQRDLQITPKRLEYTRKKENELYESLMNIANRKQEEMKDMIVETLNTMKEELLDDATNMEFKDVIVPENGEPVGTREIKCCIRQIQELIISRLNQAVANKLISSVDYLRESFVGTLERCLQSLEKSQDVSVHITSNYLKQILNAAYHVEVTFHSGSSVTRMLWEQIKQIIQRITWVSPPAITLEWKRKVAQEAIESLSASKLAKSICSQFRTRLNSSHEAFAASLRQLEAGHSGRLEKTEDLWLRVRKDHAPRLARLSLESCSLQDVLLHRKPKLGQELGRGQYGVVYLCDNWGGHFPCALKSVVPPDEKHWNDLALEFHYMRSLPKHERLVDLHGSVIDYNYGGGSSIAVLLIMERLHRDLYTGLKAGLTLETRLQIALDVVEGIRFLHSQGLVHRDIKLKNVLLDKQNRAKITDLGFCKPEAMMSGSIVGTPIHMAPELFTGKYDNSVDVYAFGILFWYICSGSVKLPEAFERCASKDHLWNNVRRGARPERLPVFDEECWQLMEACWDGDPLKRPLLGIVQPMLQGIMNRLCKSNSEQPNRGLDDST

Assay [5] has as its target T3, RPS6KA5(Kin.Dom.1-N-terminal) (Homo sapiens, UniProt O75582).
T3 construct: Kin.Dom.1-N-terminal

Assay [6] addresses TLK2 (Homo sapiens, UniProt Q86UE8).
Assay [7] addresses TRPM6 (Homo sapiens, UniProt Q9BX84).
Where [8] appears, read: read-out: Niraparib (MK-4827) / %Ctrl @ 10000nM.
[9] abbreviates: read-out: Talazoparib (BMN 673) / %Ctrl @ 10000nM.
[10] abbreviates: read-out: Rucaparib / %Ctrl @ 10000nM, binding competition, % of control.
Where [11] appears, read: read-out: Olaparib / %Ctrl @ 10000nM.

Molecules are shown by their SMILES. Like-named read-outs stand apart in the source and are kept apart here.

Sequence of FYN (P06241 whole entry): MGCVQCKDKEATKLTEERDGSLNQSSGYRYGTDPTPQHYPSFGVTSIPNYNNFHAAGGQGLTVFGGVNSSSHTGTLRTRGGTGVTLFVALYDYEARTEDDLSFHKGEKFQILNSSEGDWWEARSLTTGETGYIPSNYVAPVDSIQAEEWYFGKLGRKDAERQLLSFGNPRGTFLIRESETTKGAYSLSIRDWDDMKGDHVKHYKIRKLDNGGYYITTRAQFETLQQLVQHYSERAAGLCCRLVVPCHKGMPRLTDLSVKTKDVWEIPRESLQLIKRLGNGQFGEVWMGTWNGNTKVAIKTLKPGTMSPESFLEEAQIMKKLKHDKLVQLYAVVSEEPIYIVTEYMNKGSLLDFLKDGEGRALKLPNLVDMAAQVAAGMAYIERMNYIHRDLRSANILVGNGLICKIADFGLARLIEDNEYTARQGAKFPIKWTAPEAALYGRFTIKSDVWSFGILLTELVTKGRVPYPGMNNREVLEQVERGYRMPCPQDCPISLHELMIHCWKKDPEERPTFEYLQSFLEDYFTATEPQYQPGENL
Sequence of DDR1 (Q08345 whole entry): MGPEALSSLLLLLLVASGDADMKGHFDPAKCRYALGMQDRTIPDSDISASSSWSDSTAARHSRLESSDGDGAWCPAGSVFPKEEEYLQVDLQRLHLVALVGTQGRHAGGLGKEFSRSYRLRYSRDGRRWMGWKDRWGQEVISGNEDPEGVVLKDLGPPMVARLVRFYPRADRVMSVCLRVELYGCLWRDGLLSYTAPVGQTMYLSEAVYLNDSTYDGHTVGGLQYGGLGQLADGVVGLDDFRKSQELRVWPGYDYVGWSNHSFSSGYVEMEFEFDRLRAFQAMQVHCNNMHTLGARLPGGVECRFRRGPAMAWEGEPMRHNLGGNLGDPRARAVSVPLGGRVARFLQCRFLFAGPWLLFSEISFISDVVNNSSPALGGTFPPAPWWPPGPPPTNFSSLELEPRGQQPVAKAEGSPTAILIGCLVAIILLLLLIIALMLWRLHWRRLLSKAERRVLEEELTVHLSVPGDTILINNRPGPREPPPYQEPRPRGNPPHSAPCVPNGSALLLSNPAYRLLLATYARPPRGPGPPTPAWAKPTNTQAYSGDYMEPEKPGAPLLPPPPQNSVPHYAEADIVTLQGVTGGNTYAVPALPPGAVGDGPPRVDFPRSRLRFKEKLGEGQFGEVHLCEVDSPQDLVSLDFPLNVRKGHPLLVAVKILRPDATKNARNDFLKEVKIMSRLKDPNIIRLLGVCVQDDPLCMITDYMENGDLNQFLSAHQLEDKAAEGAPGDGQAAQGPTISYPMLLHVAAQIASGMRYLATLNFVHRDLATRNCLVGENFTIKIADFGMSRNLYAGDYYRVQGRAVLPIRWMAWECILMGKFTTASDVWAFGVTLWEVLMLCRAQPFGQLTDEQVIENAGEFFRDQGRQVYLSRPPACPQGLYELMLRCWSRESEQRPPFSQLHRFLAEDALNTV
Sequence of TRPM6 (Q9BX84 whole entry): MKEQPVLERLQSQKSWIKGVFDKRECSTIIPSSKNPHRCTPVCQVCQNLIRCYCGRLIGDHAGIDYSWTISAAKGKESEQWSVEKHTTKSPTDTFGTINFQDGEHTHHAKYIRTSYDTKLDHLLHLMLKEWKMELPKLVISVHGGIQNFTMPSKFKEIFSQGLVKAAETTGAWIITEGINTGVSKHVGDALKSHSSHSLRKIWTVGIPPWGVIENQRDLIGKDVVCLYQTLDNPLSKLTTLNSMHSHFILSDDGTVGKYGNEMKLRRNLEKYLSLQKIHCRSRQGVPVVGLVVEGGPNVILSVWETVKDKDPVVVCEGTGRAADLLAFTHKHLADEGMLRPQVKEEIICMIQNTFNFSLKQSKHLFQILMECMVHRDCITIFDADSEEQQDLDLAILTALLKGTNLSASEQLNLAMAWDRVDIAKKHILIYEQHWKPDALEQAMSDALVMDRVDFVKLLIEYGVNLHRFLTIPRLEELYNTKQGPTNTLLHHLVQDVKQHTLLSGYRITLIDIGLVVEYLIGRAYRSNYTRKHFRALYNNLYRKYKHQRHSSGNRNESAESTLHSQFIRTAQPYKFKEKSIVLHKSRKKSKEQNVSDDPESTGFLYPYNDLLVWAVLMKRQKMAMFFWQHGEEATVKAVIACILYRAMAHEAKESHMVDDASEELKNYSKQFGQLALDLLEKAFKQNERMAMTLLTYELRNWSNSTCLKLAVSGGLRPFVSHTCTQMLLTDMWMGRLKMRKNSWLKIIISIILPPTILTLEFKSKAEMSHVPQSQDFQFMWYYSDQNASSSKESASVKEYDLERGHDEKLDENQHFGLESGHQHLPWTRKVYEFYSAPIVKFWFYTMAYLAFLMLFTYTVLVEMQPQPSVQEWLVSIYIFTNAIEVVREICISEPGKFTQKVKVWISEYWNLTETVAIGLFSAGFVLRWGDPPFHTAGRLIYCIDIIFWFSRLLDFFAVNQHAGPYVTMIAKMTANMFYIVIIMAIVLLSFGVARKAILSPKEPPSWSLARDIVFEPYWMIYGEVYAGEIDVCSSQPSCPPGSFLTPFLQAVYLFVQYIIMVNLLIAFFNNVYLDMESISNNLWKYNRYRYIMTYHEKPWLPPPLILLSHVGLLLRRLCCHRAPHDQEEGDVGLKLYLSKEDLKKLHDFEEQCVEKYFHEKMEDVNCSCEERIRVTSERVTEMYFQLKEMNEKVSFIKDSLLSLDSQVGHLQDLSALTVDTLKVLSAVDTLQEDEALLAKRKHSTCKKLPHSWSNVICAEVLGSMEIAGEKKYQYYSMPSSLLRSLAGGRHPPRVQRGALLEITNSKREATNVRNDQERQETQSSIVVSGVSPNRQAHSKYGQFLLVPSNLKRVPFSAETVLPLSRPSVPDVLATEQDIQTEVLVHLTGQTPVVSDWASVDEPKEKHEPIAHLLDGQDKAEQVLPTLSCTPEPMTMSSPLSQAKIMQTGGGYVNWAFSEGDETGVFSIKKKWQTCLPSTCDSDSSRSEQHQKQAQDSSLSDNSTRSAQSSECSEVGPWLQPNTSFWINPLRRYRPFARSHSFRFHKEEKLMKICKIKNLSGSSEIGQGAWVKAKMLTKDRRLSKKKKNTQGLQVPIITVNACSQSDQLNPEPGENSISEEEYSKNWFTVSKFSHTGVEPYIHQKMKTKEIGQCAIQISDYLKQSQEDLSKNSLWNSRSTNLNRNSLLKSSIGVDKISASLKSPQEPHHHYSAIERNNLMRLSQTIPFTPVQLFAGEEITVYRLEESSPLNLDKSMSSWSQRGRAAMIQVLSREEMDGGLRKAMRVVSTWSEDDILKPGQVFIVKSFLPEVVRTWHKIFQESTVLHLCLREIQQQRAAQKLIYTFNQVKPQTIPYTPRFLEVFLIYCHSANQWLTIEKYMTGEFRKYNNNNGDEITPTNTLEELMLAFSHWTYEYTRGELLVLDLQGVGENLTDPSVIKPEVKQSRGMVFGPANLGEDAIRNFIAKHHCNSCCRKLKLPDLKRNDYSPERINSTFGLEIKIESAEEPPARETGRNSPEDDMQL
T3 sequence (O75582 whole entry): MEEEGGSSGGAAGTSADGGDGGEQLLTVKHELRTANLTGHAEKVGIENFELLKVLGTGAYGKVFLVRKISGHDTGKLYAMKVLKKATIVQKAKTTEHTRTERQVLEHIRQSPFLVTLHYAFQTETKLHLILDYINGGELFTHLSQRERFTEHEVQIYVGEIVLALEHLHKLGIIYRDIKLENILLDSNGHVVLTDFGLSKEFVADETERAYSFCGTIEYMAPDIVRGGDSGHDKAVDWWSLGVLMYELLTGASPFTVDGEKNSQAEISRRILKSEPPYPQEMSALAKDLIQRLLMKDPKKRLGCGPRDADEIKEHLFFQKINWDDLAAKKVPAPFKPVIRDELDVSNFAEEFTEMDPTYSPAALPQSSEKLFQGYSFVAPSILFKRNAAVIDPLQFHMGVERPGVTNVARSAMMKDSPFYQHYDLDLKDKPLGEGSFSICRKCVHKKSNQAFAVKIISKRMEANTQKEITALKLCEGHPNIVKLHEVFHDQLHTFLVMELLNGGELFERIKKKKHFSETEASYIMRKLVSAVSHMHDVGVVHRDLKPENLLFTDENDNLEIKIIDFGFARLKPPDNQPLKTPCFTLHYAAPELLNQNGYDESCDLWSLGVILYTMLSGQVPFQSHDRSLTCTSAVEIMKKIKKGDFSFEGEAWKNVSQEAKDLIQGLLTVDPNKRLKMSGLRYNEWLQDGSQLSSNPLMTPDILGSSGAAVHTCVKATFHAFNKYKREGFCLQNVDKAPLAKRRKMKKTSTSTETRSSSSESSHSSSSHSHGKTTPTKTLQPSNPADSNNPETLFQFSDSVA
Sequence of TLK2 (Q86UE8 whole entry): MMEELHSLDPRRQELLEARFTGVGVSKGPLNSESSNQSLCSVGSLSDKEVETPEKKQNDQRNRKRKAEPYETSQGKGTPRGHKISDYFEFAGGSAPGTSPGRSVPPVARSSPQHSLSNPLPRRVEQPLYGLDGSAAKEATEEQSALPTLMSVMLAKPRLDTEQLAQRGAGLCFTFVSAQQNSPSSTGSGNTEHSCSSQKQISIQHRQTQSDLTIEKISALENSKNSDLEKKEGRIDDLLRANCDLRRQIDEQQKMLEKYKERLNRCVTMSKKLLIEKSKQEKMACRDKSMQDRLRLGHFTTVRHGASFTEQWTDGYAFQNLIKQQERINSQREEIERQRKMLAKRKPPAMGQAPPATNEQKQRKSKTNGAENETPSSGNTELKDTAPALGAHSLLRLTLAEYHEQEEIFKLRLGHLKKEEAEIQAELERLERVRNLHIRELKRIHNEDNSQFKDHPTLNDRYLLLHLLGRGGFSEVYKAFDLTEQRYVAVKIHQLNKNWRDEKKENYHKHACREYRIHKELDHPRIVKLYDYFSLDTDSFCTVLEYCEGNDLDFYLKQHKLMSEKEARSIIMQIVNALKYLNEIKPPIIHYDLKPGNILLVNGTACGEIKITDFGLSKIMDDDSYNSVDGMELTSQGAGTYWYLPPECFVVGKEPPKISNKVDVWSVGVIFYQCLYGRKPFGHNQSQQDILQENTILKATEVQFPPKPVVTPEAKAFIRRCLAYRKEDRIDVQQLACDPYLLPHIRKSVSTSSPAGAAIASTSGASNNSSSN

Consider `NC(=O)c1cccc2cn(-c3ccc([C@@H]4CCCNC4)cc3)nc12` [Niraparib], for which the percent of control binding at 10 µM stood at 89% in assay [1] (setting [8]); 85% in assay [2] (setting [8]); 88% in assay [3] (setting [8]); 89% in assay [4] (setting [8]); 99% in assay [5] (setting [8]); 95% in assay [6] (setting [8]). Moreover, the percent of control binding at 10 µM in assay [7] (setting [8]) turned out to be 71%.
As for `Cn1ncnc1[C@H]1c2n[nH]c(=O)c3cc(F)cc(c23)N[C@@H]1c1ccc(F)cc1` [Talazoparib], the percent of control binding at 10 µM came to 90% in assay [1] (setting [9]); 84% in assay [2] (setting [9]); 100% in assay [3] (setting [9]); 100% in assay [4] (setting [9]); 98% in assay [5] (setting [9]); 84% in assay [6] (setting [9]). The percent of control binding at 10 µM in assay [7] (setting [9]) was 100%.
As to `CNCc1ccc(-c2[nH]c3cc(F)cc4c3c2CCNC4=O)cc1` [Rucaparib], the percent of control binding at 10 µM in assay [1] (setting [10]) came to 78%; in assay [2] (setting [10]), 96%; in assay [3] (setting [10]) it was 100%; in assay [4] (setting [10]) it was 96%; in assay [5] (setting [10]) it was 100%; in assay [6] (setting [10]) it was 84%. Also, in assay [7] (setting [10]), the percent of control binding at 10 µM was 77%.
Take `O=C(c1cc(Cc2n[nH]c(=O)c3ccccc23)ccc1F)N1CCN(C(=O)C2CC2)CC1` [Olaparib]: the percent of control binding at 10 µM was found to be 100% in assay [1] (setting [11]); 77% in assay [2] (setting [11]); 72% in assay [3] (setting [11]); 100% in assay [4] (setting [11]); 94% in assay [5] (setting [11]); 95% in assay [6] (setting [11]). Besides, in assay [7] (setting [11]), the percent of control binding at 10 µM was 84%.
